Like-named read-outs stand apart in the source and are kept apart here.
Biological target: T1, human Syk (GST-Syk) (Homo sapiens, UniProt P43405)
T1 construct: A cDNA fragment encoding human Syk openreading frame was cloned; made in house; host or cells: Sf21 insect cells (baculovirus, transfer vector pAcG2T)
Assay: Syk tyrosine kinase inhibitory assay
Format: biochemical
Method in brief: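 Readout: streptavidin-captured biotin-AL peptide probed with europium-4G10 anti-phosphotyrosine, time-resolved fluorescence (ex 340/em 615 nm). Reaction ran 1 h at room temperature with 30 μM ATP, 3 μM peptide, 0.65 nM Sf21-expressed GST-Syk and 0.25% DMSO, pH 8.0.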

[1] = in vitro, compounds as yielded by solid phase synthesis, purity about 40 to 90%, read-out: Activity grade (IC50 class)
[2] = in vitro, compounds as yielded by solid phase synthesis, purity about 40 to 90%
[3] = Table 17, IC50 classes, read-out: Activity grade
[4] = Table 13, read-out: Activity grade
[5] = Table 11, read-out: Activity grade
[6] = Table 16, read-out: Activity grade

SMILES | IC50 [1] | also measured
CCSc1nc(-c2ccc([N+](=O)[O-])c(OC)c2)cc2nccn12 [Example 8-8] | 2000 to 10000 nM | 
COc1ccc(-c2cc3nccn3c(N3CCCC(CO)C3)n2)cc1OC (stereo not drawn) [Example 9-65] | 500 to 2000 nM | 
COc1ccc(-c2cc3nccn3c(N(C)c3ccc(C(=O)O)cc3)n2)cc1OC [Example 11-42] |  | Activity grade (IC50 class) [2]: C-D
COc1ccc(-c2cc3nccn3c(Sc3ccc(CCC(=O)N4CCOCC4)cc3)n2)cc1OC [Example 18] |  | IC50 [3]: < 500 nM
COc1ccc(-c2cc3nccn3c(N(C)CCN(C)C)n2)cc1OC [Example 9-76] | 2000 to 10000 nM | 
COc1ccc(-c2cc3nccn3c(N3CCC(C)CC3)n2)cc1OC [Example 9-62] | 2000 to 10000 nM | 
COc1ccc(-c2cc3nccn3c(N(C)C3CCN(C)C3)n2)cc1OC (stereo not drawn) [Example 9-74] | 500 to 2000 nM | 
Oc1ccc(Sc2nc(-c3ccccc3)cc3ncnn23)cc1 [Example 14-8] |  | IC50 [4]: 2000 to 10000 nM
Cc1c(N)cccc1Oc1nc(-c2ccc(OC3CCCC3)c(O)c2)cc2ncnn12 [compound 15] |  | IC50 [3]: 2000 to 10000 nM
CCNC(=O)Oc1ccc(-c2cc3nccn3c(SCC)n2)cc1OC [Example 3-9] | 500 to 2000 nM | 
CCSc1nc(-c2ccc(OS(C)(=O)=O)c(OC)c2)cc2nccn12 [Example 3-10] | 500 to 2000 nM | 
CCSc1nc(-c2ccc(OC)c([N+](=O)[O-])c2)cc2nccn12 [Example 27] |  | IC50 [3]: < 500 nM
CCSc1nc(-c2ccc3cc(OC)ccc3c2)cc2nccn12 [Example 1-6] | 2000 to 10000 nM | 
CCOCCOc1ccc(-c2cc3nccn3c(Nc3ccccc3)n2)cc1OCCOCC [Example 12-24] |  | IC50 [5]: 500 to 2000 nM
COc1ccc(-c2cc3nccn3c(Nc3cccc(C(=O)O)c3C)n2)cc1OC [Example 11-51] | 500 to 2000 nM | 
CCSc1nc(-c2ccc(OC)c(OC)c2)cc2nc(C(=O)OC)cn12 [Example 1-1] | 500 to 2000 nM | 
COc1ccc(-c2cc3nccn3c(N3CC[C@@H](NC(=O)C(F)(F)F)C3)n2)cc1OC [Example 9-70] | 2000 to 10000 nM | 
CCSc1nc(-c2ccc(NCCCN(C)C)c(OC)c2)cc2nccn12 [Example 17-13] |  | IC50 [6]: < 500 nM
COc1cc(-c2cc3nccn3c(Nc3cccc(S(C)(=O)=O)c3)n2)ccc1N1CCOCC1 [Example 12-60] |  | IC50 [5]: < 500 nM
CCSc1nc(-c2ccc(OC)c(OC3CCCCC3)c2)cc2nccn12 [Example 4-4] | 500 to 2000 nM | 
COc1ccc(-c2cc3ncnn3c(Sc3ccc(/C=C/C(=O)O)cc3)n2)cc1OC [Example 14-10] |  | IC50 [4]: < 500 nM
COc1ccc(-c2cc3nccn3c(Sc3ccc(CCCC(=O)O)cc3)n2)cc1OC [Example 13-21] | 2000 to 10000 nM | 
COc1ccc(-c2cc3nccn3c(Sc3cc(C)ccc3C)n2)cc1OC [Example 13-1] | 500 to 2000 nM | 
COc1ccc(-c2cc3nccn3c(N3CCN(C(c4ccc(F)cc4)c4ccc(F)cc4)CC3)n2)cc1OC [Example 9-45] |  | Activity grade (IC50 class) [2]: C-D

SMILES | IC50 [1] | also measured
CCSc1nc(-c2ccc(OC)nc2)cc2nccn12 [Example 1-2] | 2000 to 10000 nM | 
COc1ccc(-c2cc3nccn3c(Nc3cnccc3C(N)=O)n2)cc1OC [Example 12-61] |  | IC50 [5]: 500 to 2000 nM
COc1ccc(-c2cc3ncnn3c(Nc3ncccc3O)n2)cc1OC [Example 9-17] | 2000 to 10000 nM | 
COc1ccc(-c2cc3nccn3c(NCCN)n2)cc1OC [Example 9-81] | 500 to 2000 nM | 
COc1ccc(-c2cc3nccn3c(Nc3ccncc3)n2)cc1OC [Example 12-8] |  | IC50 [5]: < 500 nM
CCCCCCSc1nc(-c2ccc(OC)c(OC)c2)cc2nccn12 [Example 14-18] |  | Activity grade (Table 13): C-D
COc1ccc(-c2cc3nccn3c(Sc3c(Cl)cccc3Cl)n2)cc1OC [Example 13-10] | 500 to 2000 nM | 
COc1ccc(-c2cc3nccn3c(Cc3ccccc3)n2)cc1OC [Example 35] |  | IC50 [3]: 2000 to 10000 nM
COC(=O)[C@@H]1CCCN1c1nc(-c2ccc(OC)c(OC)c2)cc2nccn12 [Example 9-71] |  | Activity grade (IC50 class) [2]: C-D
COc1ccc(-c2cc3nccn3c(SCC(C)C(=O)O)n2)cc1OC (stereo not drawn) [Example 9-91] | 500 to 2000 nM | 
COc1ccc(-c2cc3nccn3c(SCc3cccs3)n2)cc1OC [Example 14-31] |  | IC50 [4]: < 500 nM
CCSc1nc(-c2ccc(OC)c(NCCCCN(C)C)c2)cc2nccn12 [Example 17-1] |  | IC50 [6]: 500 to 2000 nM
CCCCOC(=O)CSc1nc(-c2ccc(OC)c(OC)c2)cc2nccn12 [Example 9-92] | 500 to 2000 nM | 
COc1ccc(-c2cc3nccn3c(Nc3ccc(F)cc3C(=O)O)n2)cc1OC [Example 11-41] | < 500 nM | 
COc1ccc(-c2cc3nccn3c(Nc3ccccc3F)n2)cc1OC [Example 11-53] | < 500 nM | 
COc1ccc(Nc2nc(-c3ccc(OC)c(OC)c3)cc3nccn23)cc1NCCN1CCOCC1 [Example 11-111] | 2000 to 10000 nM | 
COc1ccc(-c2cc3nccn3c(N3CCN(c4ccc([N+](=O)[O-])cc4)CC3)n2)cc1OC [Example 9-35] | 2000 to 10000 nM | 
COC(=O)CCCc1ccc(N(C)c2nc(-c3ccc(OC)c(OC)c3)cc3nccn23)cc1 [Example 11-125] | 500 to 2000 nM | 
COc1cc(-c2cc3nccn3c(Nc3ncccc3C(N)=O)n2)ccc1N1CCOCC1 [Example 38] |  | IC50 [3]: < 500 nM
COc1ccc(-c2cc3ncnn3c(Nc3ccccc3)n2)cc1OC [Example 9.79] | < 500 nM | 
COc1ccc(-c2cc3nccn3c(N3CCC(C(N)=O)CC3)n2)cc1OC [Example 9-57] | < 500 nM | 
COc1ccc(-c2cc3nccn3c(Nc3cccc(C(=N)N)c3)n2)cc1OC [Example 11-66] | < 500 nM | 
COc1ccc(-c2cc3nccn3c(Nc3ccc(OC(F)(F)F)cc3)n2)cc1OC [Example 11-95] | < 500 nM | 
COc1ccc(-c2cc3nccn3c(Nc3ccc(C(=O)NCC(O)CO)cc3)n2)cc1OC (stereo not drawn) [Example 5] |  | IC50 [3]: < 500 nM

Second part, led by results:

IC50 [1] | SMILES | also measured
< 500 nM | COc1ccc(-c2cc3nccn3c(Sc3nc4ccccc4s3)n2)cc1OC [Example 13-11] | 
< 500 nM | COc1ccc(-c2cc3nccn3c(Nc3ccc(NCCN(C)C)cc3)n2)cc1OC [Example 11-74] | 
< 500 nM | COc1ccc(-c2cc3nccn3c(N(C)c3ccc([N+](=O)[O-])cc3)n2)cc1OC [Example 11-43] | 
< 500 nM | COc1cccc(Nc2nc(-c3ccc(OC)c(OC)c3)cc3nccn23)c1 [Example 11-58] | 
< 500 nM | COc1ccc(-c2cc3nccn3c(Nc3ccc(CCCC(=O)O)cc3C(N)=O)n2)cc1OC [Example 11-105] | 
< 500 nM | CCSc1nc(-c2ccc(OC)c(O)c2)cc2nccn12 [Example 4-2] | 
< 500 nM | COc1ccc(-c2cc3nccn3c(Nc3ccc(OC(C)C)cc3)n2)cc1OC [Example 11-98] | 
< 500 nM | COc1ccc(-c2cc3nccn3c(Nc3cc([N+](=O)[O-])ccc3C(N)=O)n2)cc1OC [Example 11-109] | 
< 500 nM | CCSc1nc(-c2cccc(N)c2)cc2nccn12 [Example 8, 3-(5-Ethylsulfanyl-imidazo[1,2-c]pyrimidin-7-yl)-phenylamine] | 
< 500 nM | COc1ccc(-c2cc3nccn3c(Nc3ccccc3C(=O)O)n2)cc1OC [Example 11-77] | 
< 500 nM | COc1ccc(-c2cc3nccn3c(Nc3ccc([N+](=O)[O-])cc3)n2)cc1OC [Example 11-33] | 
< 500 nM | COc1ccc(-c2cc3nccn3c(Nc3ccc(/C=C/C(=O)OC(C)(C)C)cc3C(N)=O)n2)cc1OC [Example 11-14] | 
< 500 nM | CCCNc1nc(-c2ccc(OC)c(OC)c2)cc2nccn12 [Example 9-87] | 
< 500 nM | COc1ccc(-c2cc3nccn3c(Nc3cccc(OC(F)(F)F)c3)n2)cc1OC [Example 11-69] | 
< 500 nM | CCSc1nc(-c2ccc(OCCCN(C)CCO)c(OC)c2)cc2nccn12 [Example 5-3] | 
< 500 nM | CCSc1nc(-c2ccc(C)c(S(=O)(=O)NCCO)c2)cc2nccn12 [Example 2-5] | 
< 500 nM | COc1ccc(-c2cc3nccn3c(Nc3ccc(N(C)C)cc3)n2)cc1OC [Example 11-34] | 

IC50 [1] | SMILES | also measured
< 500 nM | COc1ccc(Nc2nc(-c3ccc(OC)c(OC)c3)cc3ncnn23)cc1 [Example 11-15] | 
< 500 nM | COc1ccc(-c2cc3nccn3c(Nc3ccc(F)cc3)n2)cc1OC [Example 11-60] | 
< 500 nM | COc1ccc(-c2cc3ncnn3c(Nc3ccc(CCC(=O)O)cc3C(N)=O)n2)cc1OC [Example 11-101] | 
< 500 nM | COc1ccc(-c2cc3nccn3c(N(C)c3ccccc3)n2)cc1OC [Example 11-18] | 
< 500 nM | COc1ccc(-c2cc3nccn3c(Nc3cccc(C)c3)n2)cc1OC [Example 11-7] | 
< 500 nM | CCSc1nc(-c2ccc(OC)c(OC(C)=O)c2)cc2nccn12 [Example 4-7] | 
< 500 nM | COc1ccc(-c2cc3nccn3c(Nc3ccc4c(c3)[nH]c(=O)n4C)n2)cc1OC [Example 11-118] | 
< 500 nM | COc1ccc(-c2cc3nccn3c(Sc3ccc4c(c3)CNCC4)n2)cc1OC [Example 13-14] | 
< 500 nM | COc1ccc(-c2cc3nccn3c(Nc3ccc(CCC(=O)O)cc3C(N)=O)n2)cc1OC [Example 11-104] | 
< 500 nM | COc1ccc(Nc2nc(-c3ccc(OC)c(OC)c3)cc3nccn23)c(C(N)=O)c1 [Example 11-96] | 
< 500 nM | COc1ccc(Nc2nc(-c3ccc(OCCN4CCOCC4)c(OC)c3)cc3nccn23)c(C(N)=O)c1 [Example 9-95] | 
< 500 nM | COc1ccc(-c2cc3nccn3c(Nc3ccc4c(c3)n(C)c(=O)n4C)n2)cc1OC [Example 11-117] | 
< 500 nM | CCOCCOc1cc(-c2cc3nccn3c(SCC)n2)ccc1OC [Example 4-6] | 
< 500 nM | Cc1c(N)cccc1Oc1nc(-c2ccc(O)c(O)c2)cc2ncnn12 [Example 14] | 
< 500 nM | COc1ccc(-c2cc3nccn3c(N(C)CCC(O)c3ccccc3)n2)cc1OC (stereo not drawn) [Example 9-53] | 
< 500 nM | COc1ccc(-c2cc3nccn3c(Sc3ccc(N4CCN(C)CC4)cc3)n2)cc1OC [Example 13-16] | 

Source: US6911443B2 (Bayer Aktiengesellschaft, priority 2000, dated 2005)
